The values that follow come from US20160130245A1, “6,8-SUBSTITUTED NARINGENIN DERIVATIVE AND USE THEREOF” (SUN YAT-SEN UNIVERSITY, priority 2012, published 2016).

Series [1] relates to mice with cough induced from aqueous ammonia. In words: Cough relieving effect of singly administered compounds in mice with cough induced from aqueous ammonia. Format: in vivo, male KM mice. The following applies: example compounds 7.44 μmol/ml, codeine phosphate 0.47 μmol/ml; for Coughs: coughs counted in 3 min after 15 s atomized 25% aqueous ammonia, 1 hr after administration, intragastric gavage or intraperitoneal injection, 0.2 ml/10 g body weight, mean ± spread; for Cough relieving rate: relative to blank group (17.8 ± 5.4 coughs), same dosing as Coughs, 0.2 ml/10 g. From the text:
II. Test on Cough Relieving Effect of Singly Administered Example Compounds of the Present Invention in Mice with Cough Induced from Aqueous Ammonia
1. Test animals: male KM mice (available from Guangdong Medical Laboratory Animal Center, Certificate No.: SCXK (Guangdong) 2008-0002, No. 0113738).
2. Test groups and treatment with drugs: Blank control group: treatment with 50% (v/v) PEG400 in physiological saline.
Treatment group with codeine phosphate as positive control—Codeine phosphate (Lott 20091212) is manufactured by Qinghai Pharmaceutical Co., Ltd. Before test, powdered codeine phosphate was added to 50% (v/v) PEG400 in physiological saline, to formulate a 0.47 μmol/ml solution.
Eligible male KM mice were randomly designated to a blank control group, and treatment groups with codeine phosphate as positive control and with example compounds, according to […].
The animals in each group were administered by intragastric gavage or intraperitoneal injection at a dosage of 0.2 ml/10 g of body weight, and placed in a cough inducing chamber 1 hr after administration. 1 ml of 25% concentrated aqueous ammonia was added to an atomizing cup and atomized for 15 s (at a rate of 0.15 ml/min). The coughs in 3 min were counted (during the typical cough, the mouth was opened and the head was lowered, which were accompanied by quivering of the neck and frequently a forward rushing).
Statistical analysis of data—Statistical analysis of all the data was conducted by SPSS 17.0 after the outliers were excluded by t test. Analysis of variance was performed by one-way ANOVA, multiple comparisons between the blank control group and each treatment group were carried out by Dunnett test, and the pairwise multiple comparisons between each treatment group and the codeine phosphate group were conducted by Duncan test.

Broadly, the melting point is the temperature of the solid-liquid transition. For the molecule `C=CCc1c(O)c(I)c2c(c1O)C(=O)CC(c1ccc(O)cc1)O2` (centres unmarked) [Example 10, 8-iodo-2,3-dihydro-5,7-dihydroxy-2-(4-hydroxyphenyl)-6-allylchromen-4-one], the melting point lay within 218 to 220 °C. Further, in series [1], the Coughs worked out at 12.2 ± 4.0 and the Cough relieving rate worked out at 31.24%.

For the molecule `C=CCc1c(O)c(O)c2c(c1O)C(=O)CC(c1ccc(O)cc1)O2` (centres unmarked) [Example 8, 6-allyl-2,3-dihydro-5,7,8-Trihydroxy-2-(4-hydroxyphenyl)chromen-4-one], the melting point lay in the range of 95 to 100 °C. In series [1], this molecule displayed a Coughs of 10.2 ± 2.6 and a Cough relieving rate of 42.64%.

Turning to `C=CCc1c(O)c(Br)c(O)c2c1OC(c1ccc(O)cc1)CC2=O` (centres unmarked) [Example 3, 8-allyl-6-bromo-2,3-dihydro-5,7-dihydroxy-2-(4-hydroxyphenyl)chromen-4-one], the melting point fell in the range of 203 to 205 °C. Moreover, in series [1], the Coughs stood at 11.2 ± 6.2 and the Cough relieving rate amounted to 37.28%.

With `C=CCc1c(O)c(Cl)c2c(c1O)C(=O)CC(c1ccc(O)cc1)O2` (centres unmarked) [Example 5, 6-allyl-8-chloro-2,3-dihydro-5,7-dihydroxy-2-(4-hydroxyphenyl)chromen-4-one], the melting point was in the range of 158 to 160 °C. In series [1], this molecule gave a Coughs of 11.8 ± 7.3 and a Cough relieving rate of 33.49%.

As for `O=C(O)Cc1c(O)c(Cl)c2c(c1O)C(=O)C[C@@H](c1ccc(O)cc1)O2` [Example 14, 8-chloro-naringenin-6-acetic acid], the melting point is 185 to 186 °C. In series [1], this molecule gave a Coughs of 9.3 ± 3.9 and a Cough relieving rate of 47.59%.

In turn, `O=C(O)Cc1c(O)cc(O)c2c1O[C@H](c1ccc(O)cc1)CC2=O` [Example 15, Naringenin-8-acetic acid] showed a melting point of 245 to 247 °C. In series [1], this molecule showed a Coughs of 8.3 ± 5.8 and a Cough relieving rate of 53.31%.

Molecule `C=CCc1c(O)c(Cl)c(O)c2c1OC(c1ccc(O)cc1)CC2=O` (centres unmarked) [Example 7, 8-allyl-6-chloro-2,3-dihydro-5,7-dihydroxy-2-(4-hydroxyphenyl)chromen-4-one] came in with a melting point of 215 to 216 °C. For the same molecule, in series [1], the Coughs is on record as 10.5 ± 5.8 and the Cough relieving rate was determined as 40.85%.

Molecule `O=C(O)Cc1c(O)c(Cl)c(O)c2c1O[C@H](c1ccc(O)cc1)CC2=O` [Example 13, 6-chloro-naringenin-8-acetic acid] returned a melting point of 185 to 186 °C. In series [1], this molecule displayed a Coughs of 7.4 ± 3.4 and a Cough relieving rate of 58.43%.

For `CCCc1c(O)cc2c(c1O)C(=O)CC(c1ccc(O)cc1)O2` (centres unmarked) [Example 2, 6-n-propyl-2,3-dihydro-5,7-dihydroxy-2-(4-hydroxyphenyl)chromen-4-one], the melting point was in the range of 173 to 175 °C. For the same molecule, in series [1], the Coughs stood at 12.4 ± 4.6 and the Cough relieving rate is 30.16%.

Regarding `O=CCc1c(O)cc2c(c1O)C(=O)C[C@@H](c1ccc(O)cc1)O2` [Example 12, Naringenin-6-acetaldehyde], the melting point is 178 to 180 °C. In series [1], this molecule showed a Coughs of 9.3 ± 4.3 and a Cough relieving rate of 47.59%.

In series [1], `COc1ccc2c3c1O[C@H]1[C@@H](O)C=C[C@H]4[C@@H](C2)N(C)CC[C@@]341` [codeine phosphate, reference compound] yielded a Coughs of 10.8 ± 3.5 and a Cough relieving rate of 39.60%.

On to `O=CCc1c(O)cc(O)c2c1O[C@H](c1ccc(O)cc1)CC2=O` [Example 11, Naringenin-8-acetaldehyde], for which the melting point fell in the range of 150 to 155 °C. In series [1], this molecule had a Coughs of 11.4 ± 6.5 and a Cough relieving rate of 35.78%.

In the case of `CCCc1c(O)c(Cl)c(O)c2c1OC(c1ccc(O)cc1)CC2=O` (centres unmarked) [Example 6, 6-chloro-2,3-dihydro-5,7-dihydroxy-2-(4-hydroxyphenyl)-8-propylchromen-4-one], the melting point was in the range of 175 to 176 °C. Also, in series [1], the Coughs is given as 9.1 ± 3.9 and the Cough relieving rate is on record as 49.06%.

`CCCc1c(O)c(Cl)c2c(c1O)C(=O)CC(c1ccc(O)cc1)O2` (centres unmarked) [Example 9, 8-Chloro-2,3-dihydro-5,7-dihydroxy-2-(4-hydroxyphenyl)-6-propylchromen-4-one] yielded a melting point of 175 to 176 °C. In series [1], this molecule had a Coughs of 10.7 ± 4.2 and a Cough relieving rate of 39.82%.

With `C=CCc1c(O)c(Br)c2c(c1O)C(=O)CC(c1ccc(O)cc1)O2` (centres unmarked) [Example 4, 6-allyl-8-bromo-2,3-dihydro-5,7-dihydroxy-2-(4-hydroxyphenyl)chromen-4-one], the melting point was in the range of 158 to 160 °C. Also, in series [1], the Coughs was found to be 11.0 ± 4.1 and the Cough relieving rate is on record as 38.03%.
